Values quoted from earlier work, collected in US20110207832A1, “SKIN DISINFECTANT COMPOSITION AND METHODS FOR MANUFACTURING AND USING” (Skinvisible Pharmaceuticals, Inc., priority 2010, published 2011).

Assays:
[1] = in vivo

Compound	water solubility (in words)	dermal toxicity [1]
[H]/N=C(\N/C(=N/[H])NCCCCCCNC(=N)NC(=N)Nc1ccc(Cl)cc1)Nc1ccc(Cl)cc1 [chlorhexidine, 1,6-di(4-chlorophenyl-diguanido) hexane]	practically insoluble in water	–
Poly(vinylpyrrolidone/1-eicosene) [PVPE]	–	no demonstrable dermal toxicity
Poly(vinylpyrrolidone/1-hexadecene) [PVPH]	–	no demonstrable dermal toxicity
